Data on four compounds can be found in patent US11759439B2, “Bromhexine for the treatment of pain” (priority 2017, dated 2023).

Entries after “also recorded” stand apart in the source; their conditions may differ.

In data set [1] the test system is patient with neuropathic pain in both feet. In words: Case report 2: topical bromhexine cream, NRS pain score, neuropathic forefoot pain. It counts as in vivo, human. Conditions: for effect of earlier treatment (patient history): before bromhexine. From the text:
(§1) In the following Examples a dermal topical cream was used comprising 20% (w/w) bromhexine HCl (10 g), medium-chain triglycerides (MCTs; Triglycerida Saturata Medium Migloyol® 812N, FAGRON GmbH & Co. KG, Cas No. 73398-61-5) (5 g), Linola Creme ad 50 g (Dr. August Wolff GmbH & Co. KG Arzneimittel, PZN 02489672; emulsion O/W containing unsaturated fatty acids (C182), carbomer 980, decyloleat, glycerol monosterate, ceteareth-3, phenoxyethanol, stearic acid, trometamol, wax bleached and purified water), unless stated otherwise. The dermal topical cream was prepared by mixing bromhexine with the MCTs and adding the Linola Creme to obtain a homogenous cream. We chose a dermal topical cream rather than a gel, because a cream is better absorbed by the skin. Bromhexine was fast and easy to formulate into a topical pharmaceutical composition, particularly into a homogenous cream.
(§2) The dermal topical cream was administered (thinly) to the skin in the affected area and a beneficial effect was typically noticed within 30 min. The effect lasted for about 4 to 12 hours, typically 6 hours. For long term treatment the cream was administered 2 to 3 times per day. In some cases a once daily administration was sufficient.
(§3) In all case reports shown below, the intensity of pain is reported with the NRS-Score (NRS=numeric rating scale) on which the patient rates their pain between ‘0=no pain’ and ‘10=unbearable pain’. The NRS-Score is the standard of pain evaluation in international publications and according to the literature an intensity of NRS 3 or lower usually is felt as ‘tolerable’ by patients with chronic pain.
The […] presented neuropathic pain in both feet and felt “running on coals” and as “gripped in a vice”, walking or gardening were almost impossible. It could not be explained in orthopaedic terms and no polyneuropathy was detected on neurographic investigation. […] Gabapentin, opiates and topical lidocaine were not helpful. After topical bromhexine the pain of NRS 5 during the heel-to-toe roll and the forefoot touch sensitivity decreased to NRS 1 within 15 min and disappeared after 30 min for hours (FIG. 6, last columns, “neuropathic forefoot pain”).

Data set [2] relates to patient with osteoarthritis in both knees and chronic postsurgical pain (CPSP) after knee replacement. In words: Case report 1: topical bromhexine cream, NRS pain score, knees. Type of data set: in vivo, human.
Text: as §1, §2, §3
A patient suffered from osteoarthritis in both knees and had received knee replacement followed by chronic postsurgical pain (CPSP) in one of it. […] Starting on a pain level of NRS 7, 30 min after topical bromhexine the pain decreased to NRS 6 and to NRS 4 within 2 hours. […] On another occasion the pain was reduced in both knees from NRS 6 before bromhexine treatment to NRS 3 after 2 hours.

The subject of data set [3] is humans. Particulars: cited from earlier work.
The subject of data set [4] is rodents. Particulars: cited from earlier work.
In data set [5] the target is T1, tetrodotoxin-resistant (TTXr) Na+ currents encoded by Nav1.8 (Homo sapiens, UniProt Q9Y5Y9).
T1 construct: host or cells: sensory neurons
Conditions: preference for TTXr Na+ currents encoded by Nav1.8; cited from earlier work.

In data set [6] the test system is patient with chronic pain caused by osteoarthritis of the fingers. In words: Case report 9: topical bromhexine, osteoarthritis of the fingers. Particulars: 15 min after topical bromhexine; before: incomplete and very painful. Type of data set: in vivo, human.
Text: as §1, §2
A patient with chronic pain caused by osteoarthritis of the fingers for many years. Forming a fist was incomplete and very painful. […]

Data set [7] relates to patient with severe chronic low back pain and S1 radiculopathy. In words: Case report 5: topical bromhexine, low back pain (S1-radiculopathy). It counts as in vivo, human.
Text: as §1
(§4) The dermal topical cream was administered (thinly) to the skin in the affected area and a beneficial effect was typically noticed within 30 min. The effect lasted for about 4 to 12 hours, typically 6 hours. For long term treatment the cream was administered 2 to 3 times per day. In some cases a once daily administration was sufficient. […]

Data set [8] concerns patient with fibromyalgia pain. In words: Case report 11: topical bromhexine, fibromyalgia pain of the hands. It counts as in vivo, human.
Text: as §1, §4

For data set [9] the following is noted: in vivo; cited from earlier work.
The subject of data set [10] is patient with severe fibromyalgia pain. In words: Case report 10: topical bromhexine, severe fibromyalgia. It counts as in vivo, human. Conditions: 25 min after topical bromhexine.
Text: as §1, §2
A patient with severe fibromyalgia pain presented an exacerbation with painful hand/finger movements and swelling. […] The patient was surprised about the reduced swelling, the possibility of the closure of fist and a reduction of the functional impairment during movement. Closure of the fist was only possible to a half-closed position without (or almost no) pain before treatment (FIG. 4C, top panel).

Data set [11] concerns patient with chronic severe pain syndrome of both hands and arms from unclear origin. In words: Case report 8: topical bromhexine, chronic unclear severe pain syndrome of hands and arms. Type of data set: in vivo, human.
Text: as §1, §2
Further the extent of possible finger spreading was much better in their left hand, which was treated with the bromhexine compared to their untreated right hand (FIG. 1 C). Particularly the extent of the “pain limited” finger spreading of their bromhexine treated left hand hand compared to their untreated right hand increased. In their untreated right hand pain started immediately with the first movement. Further, the extent of possible free of pain elbow rotation 20 min after bromhexine in their left treated elbow increased (FIG. 1D, bottom panel). No movement free of pain was possible in their right elbow (FIG. 1D, top panel).

Data set [12] has as its system patient with painful left knee after meniscus surgery. In words: Case report 3: topical bromhexine, NRS pain score, knee pain after meniscus surgery. It counts as in vivo, human. Conditions: after bromhexine treatment; NRS 8 before; time not stated.
Text: as §1, §4

Data set [13] relates to patient with pain in right hand and wrist due to osteoarthritis. In words: Case report 3: topical bromhexine cream, NRS pain score, osteoarthritis of hand and wrist. It counts as in vivo, human. Particulars: within 2 hours after topical bromhexine cream; NRS 6 before treatment.
Text: as §1, §4

In data set [14] the test system is patient with postherpetic neuralgia. In words: Case report 4: topical bromhexine, postherpetic neuralgia. It counts as in vivo, human. Particulars: for pain in the treated area (NRS): untreated abdominal area unchanged.
Text: as §1, §2, §3
A patient contracted an infection with the herpes zoster virus followed by skin eruptions 3 years ago. In the affected area of the right thorax they developed a dynamic allodynia and pinprick hyperalgesia and hypersensitivity to cold and airbrush which spread out circular to the abdominal region. Only the dorsal part of the area was treated with bromhexine. […]

The subject of data set [15] is treated patients. In words: Topical bromhexine cream in pain patients: onset, duration, side effects (all cases). It counts as in vivo, human.
Text: as §1, §4

The test system of data set [16] is patient with complex regional pain syndrome (CRPS). In words: Case report 7: topical bromhexine, complex regional pain syndrome (CRPS). Type of data set: in vivo, human. Particulars: 30-45 min following the treatment.
Text: as §1, §4

Data set [17] has as its system patient with rheumatoid arthritis and fibromyalgia. In words: Case report 6: topical bromhexine cream, rheumatoid arthritis and fibromyalgia, hands. Type of data set: in vivo, human.
Text: as §1, §2
A rheumatoid arthritis and fibromyalgia for many years developed a chronic pain disease in a person. Hands were distorted painfully and movements like the closure of fist were only possible very slowly and the movement was painful and incomplete. Self-supply was threatened. The medical options for pain therapy were limited due to long-term side effects on stomach, kidney, cardiovascular system and liver by nonsteroidal anti-rheumatic drugs (NSAIDS) or coxibes as well as the risk of tumbling caused by central nervous effects as sedation and dizziness. Bromhexine cream was applied at both hands. Already 2 min later the patients started to move both hands and ‘searched their pain’ because it was improved and movements could be performed more easily, quickly and complete. […]

Data set [18] has as its system mucus. Particulars: cited from earlier work.

`NCC1(CC(=O)O)CCCCC1` [Gabapentin]: the “effect of earlier treatment (patient history)” value in data set [1] is on record as “not helpful”.

As for `CCN(CC)CC(=O)Nc1c(C)cccc1C` [lidocaine], the “effect of earlier treatment (patient history)” value in [1] was “not helpful”; in data set [2] (topical plasters, before bromhexine), “not been helpful”.

As for `Nc1c(Br)cc(Br)cc1CN[C@H]1CC[C@H](O)CC1` [Ambroxol], in data set [3], the pain result is given as “alleviate pain”. Also, the pain-related behavior result in data set [4] was “reduce pain-related behavior”. Moreover, in data set [5], the “Na+ currents in sensory neurons” value is “block Na+ currents”.

`CN(Cc1cc(Br)cc(Br)c1N)C1CCCCC1` [bromhexine, 2,4-dibromo-6-[[cyclohexyl(methyl)amino]methyl]aniline]: the “closure of the fist” value in [6] was “closed completely and with reduced pain; also recorded: performed completely and with reduced pain”; in data set [10] (before: only half-closed without pain), “completely possible without pain; also recorded: closed completely and without pain”. Further, the stabbing sensations entry in data set [7] (after bromhexine) is given as “reduced”. Also, the “pain level (NRS)” value in data set [7] (within 30 minutes, NRS 6 before bromhexine) is listed as “about 4”; in data set [1] (8 hours later, NRS 5 before) it was 2 NRS; in [2] (30 min after topical bromhexine, starting pain level NRS 7, knee with CPSP), 6 NRS; in data set [2] (another occasion, both knees, NRS 6 before bromhexine, after 2 hours), 3 NRS; in [2] (within 2 hours after topical bromhexine, starting pain level NRS 7, knee with CPSP) it was 4 NRS. Also, the stabbing entry in [8] (30 min following topical bromhexine) was “disappeared”. Besides, in [8] (30 min following topical bromhexine to the hands, NRS 5 before), the “pain in both hands with tension, stiffness, swelling and stabbing” value is given as “disappeared broadly”. Besides, the bioavailability entry in data set [9] is “relatively low”. For the same compound, the hepatic first-pass effect entry in data set [9] was “up to 80%”. Further, the “passage of the blood-brain barrier” value in [9] is on record as “pass the blood-brain barrier”. Moreover, the “swelling of the treated right hand” value in data set [10] is on record as “strongly reduced”. Moreover, the “movement of the thumb to the palm” value in data set [10] (impossible before) is “free of pain; also recorded: not any longer limited by pain”. Moreover, the “swelling in the treated area” value in data set [11] (20 min after bromhexine) is recorded as “reduction of swelling”. Also, in data set [11] (20 min after bromhexine, left treated elbow), the “extent of possible free of pain elbow rotation” value is “increased”. Further, the “reddening of the treated left hand” value in data set [11] (20 min following topical bromhexine, right hand untreated) is “reduction of reddening”. Also, the “pain and feeling of swelling and tension” value in [11] (20 min following topical bromhexine, treated left hand) is “impressive reduction”. Moreover, in data set [11] (about 30 min after bromhexine, none free of pain in untreated right arm), the “movements of the left hand and arm” value is reported as “able to perform movements free of pain; also recorded: diverse possible movements free of pain”. For the same compound, the “extent of possible finger spreading” value in [11] (treated left hand compared to untreated right hand, 20 min) is recorded as “much better”. The “pain intensity (NRS)” value in data set [12] was determined as 4.5 NRS. Besides, in data set [13], the “pain (NRS)” value was found to be 0.5 NRS. The “pain in the treated area (NRS)” value in [14] (after 15 min) was found to be 4 NRS; in [14] (after 30 min), 1 NRS. The “tingling sensation and subjective hypersensitivity” value in data set [14] (after the first few minutes, treated dorsal area) is “disappeared completely”. For the same compound, the side effects result in data set [15] is listed as “None of the treated patients reported side effects”. Also, in data set [16], the “motions of the hand” value is “without stabbing sensations”. Further, the “burning pain (NRS)” value in data set [16] (8 NRS before) is 3 NRS. For the same compound, in data set [1] (8 hours later), the “functional impairment of walking” value is listed as “without recurrence”. The “pain during heel-to-toe roll and forefoot touch sensitivity” value in data set [1] (after 30 min, for hours, NRS 5 before) is on record as “disappeared”. Also, the “pain level (NRS) during heel-to-toe roll and forefoot touch sensitivity” value in data set [1] (within 15 min after topical bromhexine, NRS 5 before) was 1 NRS. Also, the closure of fist entry in data set [17] (5 min after topical bromhexine, both hands) is reported as “improved notable in motion sequence; also recorded: improved notably in motion sequence”. Also, the “time to first improvement of pain and movements” value in data set [17] (after application of bromhexine cream at both hands) was found to be 2 min. The “duration of the improvement” value in [17] (in vivo) was “several hours”. Besides, the secretion volume entry in [18] (in vivo) was “increases”. Further, the “viscosity of the sputum” value in data set [18] (in vivo) is “decreases”. For the same compound, the side-effects entry in data set [18] (known oral use) is given as “very few side-effects”.
